Test results from PMC6496074, “The Evolution of Azole Resistance in Candida albicans Sterol 14α-Demethylase (CYP51) through Incremental Amino Acid Substitutions” (Antimicrobial Agents and Chemotherapy, 2019).

How the values were obtained:
Test in all cases: CYP51 reconstitution assay
Format in all cases: biochemical
CaCYP51 Y132F = biological target: T1, CaCYP51 Y132F (Candida albicans, UniProt P10613, Y132F); conditions: 0.25 h, 4 μM triazole, % of activity without triazole, read-out: Residual CYP51 activity (%) ± SD
T1 construct: made in house; host or cells: E. coli DH5α (pCWori+)
T1 sequence (P10613 whole entry, looked up, stated change not applied): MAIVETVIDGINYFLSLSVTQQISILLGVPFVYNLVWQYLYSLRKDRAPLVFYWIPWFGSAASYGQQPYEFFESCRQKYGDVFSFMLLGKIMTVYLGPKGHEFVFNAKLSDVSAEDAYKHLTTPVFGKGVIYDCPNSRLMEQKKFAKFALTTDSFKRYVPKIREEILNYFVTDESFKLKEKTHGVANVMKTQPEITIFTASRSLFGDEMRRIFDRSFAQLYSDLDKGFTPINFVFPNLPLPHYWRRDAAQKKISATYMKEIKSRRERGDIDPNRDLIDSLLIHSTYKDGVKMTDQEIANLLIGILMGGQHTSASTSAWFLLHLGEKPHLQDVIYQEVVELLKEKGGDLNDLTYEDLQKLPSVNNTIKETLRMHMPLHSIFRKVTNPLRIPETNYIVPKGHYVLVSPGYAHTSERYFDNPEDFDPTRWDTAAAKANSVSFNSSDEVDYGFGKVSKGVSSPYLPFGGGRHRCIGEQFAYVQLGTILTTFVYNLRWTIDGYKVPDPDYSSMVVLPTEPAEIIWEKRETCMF
Method: (§1) Azole antifungal agents were added in 2.5 μl dimethyl sulfoxide, followed by 10 min of incubation at 37°C prior to assay initiation with 4 mM β-NADPH-Na4. The samples were then shaken for 15 min at 37°C. Sterol metabolites were recovered by extraction with ethyl acetate, followed by derivatization with 0.1 ml N,O-bis(trimethylsilyl)trifluoroacetamide (BSTFA)–trimethylchlorosilane (TMCS) (99:1) and 0.3 ml anhydrous pyridine (2 h at 80°C), prior to analysis by gas chromatography-mass spectrometry (GC-MS) ([52]). IC50 determinations were performed in duplicate.

CaCYP51 Y132H+K143R = biological target: T2, CaCYP51 Y132H+K143R (Candida albicans, UniProt P10613, K143R/Y132H); conditions: 0.25 h, 4 μM triazole, % of activity without triazole, read-out: Residual CYP51 activity (%) ± SD
T2 construct: made in house; host or cells: E. coli DH5α (pCWori+)
Method: as §1

CaCYP51 Q474K = biological target: T3, CaCYP51 Q474K (Candida albicans, UniProt P10613, Q474K); conditions: 0.25 h, 4 μM triazole, % of activity without triazole, read-out: Residual CYP51 activity (%) ± SD
T3 construct: made in house; host or cells: E. coli DH5α (pCWori+)
T3 sequence (P10613 whole entry, looked up, stated change not applied): as above
Method: as §1

CaCYP51 F449Y = biological target: T4, CaCYP51 F449Y (Candida albicans, UniProt P10613, F449Y); conditions: 0.25 h, 4 μM triazole, % of activity without triazole, read-out: Residual CYP51 activity (%) ± SD
T4 construct: made in house; host or cells: E. coli DH5α (pCWori+)
Method: as §1

CaCYP51 Y257H = biological target: T5, CaCYP51 Y257H (Candida albicans, UniProt P10613, Y257H); conditions: 0.25 h, 4 μM triazole, % of activity without triazole, read-out: Residual CYP51 activity (%) ± SD
T5 construct: made in house; host or cells: E. coli DH5α (pCWori+)
T5 sequence (P10613 whole entry, looked up, stated change not applied): as above
Method: as §1

CaCYP51 F126V = biological target: T6, CaCYP51 F126V (Candida albicans, UniProt P10613, F126V); conditions: 0.25 h, 4 μM triazole, % of activity without triazole, read-out: Residual CYP51 activity (%) ± SD
T6 construct: made in house; host or cells: E. coli DH5α (pCWori+)
Method: as §1

CaCYP51 G450E = biological target: T7, CaCYP51 G450E (Candida albicans, UniProt P10613, G450E); conditions: 0.25 h, 4 μM triazole, % of activity without triazole, read-out: Residual CYP51 activity (%) ± SD
T7 construct: made in house; host or cells: E. coli DH5α (pCWori+)
T7 sequence (P10613 whole entry, looked up, stated change not applied): as above
Method: as §1

CaCYP51 Y447H = biological target: T8, CaCYP51 Y447H (Candida albicans, UniProt P10613, Y447H); conditions: 0.25 h, 4 μM triazole, % of activity without triazole, read-out: Residual CYP51 activity (%) ± SD
T8 construct: made in house; host or cells: E. coli DH5α (pCWori+)
Method: as §1

CaCYP51 G307S = biological target: T9, CaCYP51 G307S (Candida albicans, UniProt P10613, G307S); conditions: 0.25 h, 4 μM triazole, % of activity without triazole, read-out: Residual CYP51 activity (%) ± SD
T9 construct: made in house; host or cells: E. coli DH5α (pCWori+)
Method: as §1

CaCYP51 G448E = biological target: T10, CaCYP51 G448E (Candida albicans, UniProt P10613, G448E); conditions: 0.25 h, 4 μM triazole, % of activity without triazole, read-out: Residual CYP51 activity (%) ± SD
T10 construct: made in house; host or cells: E. coli DH5α (pCWori+)
Method: as §1

CaCYP51 I471T = biological target: T11, CaCYP51 I471T (Candida albicans, UniProt P10613, I471T); conditions: 0.25 h, 4 μM triazole, % of activity without triazole, read-out: Residual CYP51 activity (%) ± SD
T11 construct: made in house; host or cells: E. coli DH5α (pCWori+)
T11 sequence (P10613 whole entry, looked up, stated change not applied): as above
Method: as §1

CaCYP51 Wild type = biological target: T12, CaCYP51 Wild type (Candida albicans, UniProt P10613); conditions: 0.25 h; Wild type; 4 μM triazole; % of activity without triazole; read-out: Residual CYP51 activity (%) ± SD
T12 construct: made in house; host or cells: E. coli DH5α (pCWori+)
Method: as §1

CaCYP51 V456I = biological target: T13, CaCYP51 V456I (Candida albicans, UniProt P10613, V456I); conditions: 0.25 h, 4 μM triazole, % of activity without triazole, read-out: Residual CYP51 activity (%) ± SD
T13 construct: made in house; host or cells: E. coli DH5α (pCWori+)
T13 sequence (P10613 whole entry, looked up, stated change not applied): as above
Method: as §1

CaCYP51 V488I = biological target: T14, CaCYP51 V488I (Candida albicans, UniProt P10613, V488I); conditions: 0.25 h, 4 μM triazole, % of activity without triazole, read-out: Residual CYP51 activity (%) ± SD
T14 construct: made in house; host or cells: E. coli DH5α (pCWori+)
Method: as §1

CaCYP51 G464S = biological target: T15, CaCYP51 G464S (Candida albicans, UniProt P10613, G464S); conditions: 0.25 h, 4 μM triazole, % of activity without triazole, read-out: Residual CYP51 activity (%) ± SD
T15 construct: made in house; host or cells: E. coli DH5α (pCWori+)
T15 sequence (P10613 whole entry, looked up, stated change not applied): as above
Method: as §1

CaCYP51 K143R = biological target: T16, CaCYP51 K143R (Candida albicans, UniProt P10613, K143R); conditions: 0.25 h, 4 μM triazole, % of activity without triazole, read-out: Residual CYP51 activity (%) ± SD
T16 construct: made in house; host or cells: E. coli DH5α (pCWori+)
T16 sequence (P10613 whole entry, looked up, stated change not applied): as above
Method: as §1

CaCYP51 Y132H = biological target: T17, CaCYP51 Y132H (Candida albicans, UniProt P10613, Y132H); conditions: 0.25 h, 4 μM triazole, % of activity without triazole, read-out: Residual CYP51 activity (%) ± SD
T17 construct: made in house; host or cells: E. coli DH5α (pCWori+)
T17 sequence (P10613 whole entry, looked up, stated change not applied): as above
Method: as §1

CaCYP51 S405F = biological target: T18, CaCYP51 S405F (Candida albicans, UniProt P10613, S405F); conditions: 0.25 h, 4 μM triazole, % of activity without triazole, read-out: Residual CYP51 activity (%) ± SD
T18 construct: made in house; host or cells: E. coli DH5α (pCWori+)
Method: as §1

CaCYP51 F145L = biological target: T19, CaCYP51 F145L (Candida albicans, UniProt P10613, F145L); conditions: 0.25 h, 4 μM triazole, % of activity without triazole, read-out: Residual CYP51 activity (%) ± SD
T19 construct: made in house; host or cells: E. coli DH5α (pCWori+)
Method: as §1

CaCYP51 D278N = biological target: T20, CaCYP51 D278N (Candida albicans, UniProt P10613, D278N); conditions: 0.25 h, 4 μM triazole, % of activity without triazole, read-out: Residual CYP51 activity (%) ± SD
T20 construct: made in house; host or cells: E. coli DH5α (pCWori+)
Method: as §1

CaCYP51 S279F = biological target: T21, CaCYP51 S279F (Candida albicans, UniProt P10613, S279F); conditions: 0.25 h, 4 μM triazole, % of activity without triazole, read-out: Residual CYP51 activity (%) ± SD
T21 construct: made in house; host or cells: E. coli DH5α (pCWori+)
Method: as §1

CaCYP51 G307S+G450E = biological target: T22, CaCYP51 G307S+G450E (Candida albicans, UniProt P10613, G307S/G450E); conditions: 0.25 h, 4 μM triazole, % of activity without triazole, read-out: Residual CYP51 activity (%) ± SD
T22 construct: made in house; host or cells: E. coli DH5α (pCWori+)
Method: as §1

CaCYP51 Y118A = biological target: T23, CaCYP51 Y118A (Candida albicans, UniProt P10613, Y118A); conditions: 0.25 h, 4 μM triazole, % of activity without triazole, read-out: Residual CYP51 activity (%) ± SD
T23 construct: made in house; host or cells: E. coli DH5α (pCWori+)
Method: as §1

For `C[C@@H](c1ncncc1F)[C@](O)(Cn1cncn1)c1ccc(F)cc1F` [Voriconazole, voriconazole], the remaining activity at 4 µM (CaCYP51 Y132F) was 1.09 ± 0.05%, the remaining activity at 4 µM (CaCYP51 Y132H+K143R) was 39.6 ± 8.63% and the remaining activity at 4 µM (CaCYP51 Q474K) was 0.34 ± 0.04%. The remaining activity at 4 µM (CaCYP51 F449Y) was 0.56 ± 0.12%, the remaining activity at 4 µM (CaCYP51 Y257H) was 0.63 ± 0.27% and the remaining activity at 4 µM (CaCYP51 F126V) was 0.19 ± 0.06%. For the same compound, the remaining activity at 4 µM (CaCYP51 G450E) was 3.5 ± 0.17%, the remaining activity at 4 µM (CaCYP51 Y447H) was 2.07 ± 1.04% and the remaining activity at 4 µM (CaCYP51 G307S) was 0.41 ± 0.04%. It also gave a remaining activity at 4 µM (CaCYP51 G448E) of 1.89 ± 0.61%, a remaining activity at 4 µM (CaCYP51 I471T) of 0.92 ± 0.05% and a remaining activity at 4 µM (CaCYP51 Wild type) of 0.11 ± 0.01%. It also gave a remaining activity at 4 µM (CaCYP51 V456I) of 0.79 ± 0.07%, a remaining activity at 4 µM (CaCYP51 V488I) of 0.13 ± 0.08% and a remaining activity at 4 µM (CaCYP51 G464S) of 0.1 ± 0.01%. The remaining activity at 4 µM (CaCYP51 K143R) was 3.12 ± 0.27%, the remaining activity at 4 µM (CaCYP51 Y132H) was 0.33 ± 0.19% and the remaining activity at 4 µM (CaCYP51 S405F) was 1.94 ± 0.12%. The remaining activity at 4 µM (CaCYP51 F145L) was 0.37 ± 0.11%, the remaining activity at 4 µM (CaCYP51 D278N) was 1.34 ± 0.05% and the remaining activity at 4 µM (CaCYP51 S279F) was 6.15 ± 0.66%. It also gave a remaining activity at 4 µM (CaCYP51 G307S+G450E) of 0.41 ± 0.1% and a remaining activity at 4 µM (CaCYP51 Y118A) of 0.28 ± 0.04%.
